According to patent US8232288B2, “Substituted benzimidazoles, benzothiazoles and benzoxazoles” (Gruenenthal GmbH, priority 2009, dated 2012):
Structures can show the parent of a compound that is named as a salt.

How the values were obtained:
[1] = molecular target: T1, B1R receptor of the rat (rB1R) (Rattus norvegicus, UniProt P97583); test: Functional investigation on the bradykinin receptor 1 (B1R), FLIPR Ca2+ assay, rB1R cells; assay type: cell-based
T1 construct: expressed in transfected cells; host or cells: CHO K1 cells
T1 sequence (P97583 1-337): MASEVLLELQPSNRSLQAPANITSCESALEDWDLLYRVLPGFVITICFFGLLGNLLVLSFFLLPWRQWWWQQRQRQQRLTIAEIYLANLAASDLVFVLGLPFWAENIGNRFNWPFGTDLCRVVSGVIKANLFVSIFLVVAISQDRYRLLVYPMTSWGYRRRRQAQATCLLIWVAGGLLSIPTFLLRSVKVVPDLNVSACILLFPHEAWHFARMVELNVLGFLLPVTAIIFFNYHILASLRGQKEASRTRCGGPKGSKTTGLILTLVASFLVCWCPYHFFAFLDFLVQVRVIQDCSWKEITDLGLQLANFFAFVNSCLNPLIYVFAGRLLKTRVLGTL
Procedure, shortened: (§1)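 Stably transfected CHO K1 cells expressing human or rat B1R were loaded with Fluo-4, and Ca2+ fluorescence was read on a FLIPR. Compound (10 μM) was added first to measure activation. After 10–20 min, agonist at EC80 was added (Lys-Des-Arg9-bradykinin for hB1R, Des-Arg9-bradykinin for rB1R) to give % inhibition. IC50 values came from concentration series.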

[2] = molecular target: T2, human B1R receptor (hB1R) (Homo sapiens, UniProt P46663); test: Functional investigation on the bradykinin receptor 1 (B1R), FLIPR Ca2+ assay, hB1R cells; assay type: cell-based
T2 construct: expressed in transfected cells; host or cells: CHO K1 cells
T2 sequence (P46663 1-353): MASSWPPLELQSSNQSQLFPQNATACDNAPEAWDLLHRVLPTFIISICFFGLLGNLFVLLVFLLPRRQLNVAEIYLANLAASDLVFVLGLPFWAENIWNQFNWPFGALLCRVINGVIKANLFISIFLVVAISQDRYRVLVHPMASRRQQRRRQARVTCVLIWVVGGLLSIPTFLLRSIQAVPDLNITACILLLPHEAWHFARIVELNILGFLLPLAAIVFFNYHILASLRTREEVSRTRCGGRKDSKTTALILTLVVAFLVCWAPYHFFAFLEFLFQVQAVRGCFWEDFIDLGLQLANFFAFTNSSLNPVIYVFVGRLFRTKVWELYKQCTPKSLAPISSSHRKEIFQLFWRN
Procedure, shortened: as §1

| SMILES | inhibition at 10 µM [1] [%] | inhibition at 10 µM [2] [%] |
| --- | --- | --- |
| CN(Cc1nc2cccc(C(=O)N3CCC4(CC3)CCN(c3ccncc3)C4)c2[nH]1)C(=O)c1sccc1Cl [I_CC-09, 3-chloro-N-methyl-N-[[7-(3-pyridin-4-yl-3,8-diazaspiro[4.5]decane-8-carbonyl)-1H-benzoimidazol-2-yl]-methyl]-thiophene-2-carboxylic acid amide] | 58 | 15 |
| Cc1cccc(Cl)c1S(=O)(=O)N(C)Cc1nc2cccc(C(=O)N3CCC4(CC3)CCN(c3ccncc3)CC4)c2[nH]1 [I_CC-11, 2-chloro-N,6-dimethyl-N-[[7-(3-pyridin-4-yl-3,9-diazaspiro[5.5]undecane-9-carbonyl)-1H-benzoimidazol-2-yl]-methyl]-benzenesulfonic acid amide] | 91 | 98 |
| COc1cc(C)c(S(=O)(=O)N(C)Cc2nc3cccc(C(=O)N4CCC5(CC4)CC(c4ccncc4)=NO5)c3[nH]2)c(C)c1 [I_27, 4-methoxy-N,2,6-trimethyl-N-[[7-(3-pyridin-4-yl-1-oxa-2,8-diazaspiro[4.5]dec-2-ene-8-carbonyl)-1H-benzoimidazol-2-yl]-methyl]-benzenesulfonic acid amide] | 94 | 93 |
| COc1cc(C)c(S(=O)(=O)N(C)Cc2nc3ccc(C(=O)N4CCC5(CC4)CCN(c4ccncc4)CC5)cc3[nH]2)c(C)c1 [I_22, 4-methoxy-N,2,6-trimethyl-N-[[6-(9-pyridin-4-yl-3,9-diazaspiro[5.5]undecane-3-carbonyl)-1H-benzoimidazol-2-yl]-methyl]-benzenesulfonic acid amide] | 103 | 100 |
| O=C1c2c(Cl)cccc2CN1Cc1nc2cccc(C(=O)N3CCC4(CC3)CCN(c3ccncc3)CC4)c2[nH]1 [I_CC-12, 7-chloro-2-[[7-(3-pyridin-4-yl-3,9-diazaspiro[5.5]undecane-9-carbonyl)-1H-benzoimidazol-2-yl]-methyl]-2,3-dihydro-isoindol-1-one] | 101 | 100 |
| COc1cc(C)c(S(=O)(=O)N(C)c2nc3c(C(=O)N4CCC5(CC4)CCN(c4ccncc4)C5)cccc3s2)c(C)c1 [I_CC-21, 4-methoxy-N,2,6-trimethyl-N-[4-(3-pyridin-4-yl-3,8-diazaspiro[4.5]decane-8-carbonyl)-benzothiazol-2-yl]-benzenesulfonic acid amide] | 65 | 36 |
| COc1cc(C)c(S(=O)(=O)N(C)Cc2nc3cccc(C(=O)N4CCC5(CCN(c6ccncc6)C5)C4)c3[nH]2)c(C)c1 (stereo not shown) [I_10, 4-methoxy-N,2,6-trimethyl-N-[[7-(8-pyridin-4-yl-3,8-diazaspiro[4.4]nonane-3-carbonyl)-1H-benzoimidazol-2-yl]-methyl]-benzenesulfonic acid amide] | 104 | 100 |
| CN(Cc1nc2cccc(C(=O)N3CCC4(CC3)CCN(c3ccncc3)CC4)c2[nH]1)S(=O)(=O)c1ccc(OC(F)(F)F)cc1Cl [I_11, 2-chloro-N-methyl-N-[[7-(9-pyridin-4-yl-3,9-diazaspiro[5.5]undecane-3-carbonyl)-1H-benzoimidazol-2-yl]-methyl]-4-(trifluoromethyloxy)-benzenesulfonic acid amide hydrochloride] | 99 | 99 |
| COc1cc(C)c(S(=O)(=O)N(C)c2nc3ccc(C(=O)N4CCC5(CC4)CCN(c4ccncc4)CC5)cc3n2C)c(C)c1 [I_CC-17, 4-methoxy-N,2,6-trimethyl-N-[1-methyl-6-(3-pyridin-4-yl-3,9-diazaspiro[5.5]undecane-9-carbonyl)-1H-benzoimidazol-2-yl]-benzenesulfonic acid amide] | 56 | 71 |

Other lines, results leading:

| inhibition at 10 µM [1] [%] | inhibition at 10 µM [2] [%] | SMILES |
| --- | --- | --- |
| 103 | 22 | COc1cc(C)c(S(=O)(=O)N(C)C(C)c2nc3cccc(C(=O)N4CCC5(CC4)CCN(S(=O)(=O)c4ccc(F)cc4F)CC5)c3[nH]2)c(C)c1 (stereo not shown) [I_CC-57, N-[1-[7-[9-[(2,4-Difluoro-phenyl)sulfonyl]-3,9-diazaspiro[5.5]undecane-3-carbonyl]-1H-benzoimidazol-2-yl]-ethyl]-4-methoxy-N,2,6-trimethyl-benzenesulfonic acid amide] |
| 104 | 68 | COc1cc(C)c(S(=O)(=O)N(C)C(C)c2nc3cccc(C(=O)N4CCC5(CCN(Cc6[nH]cnc6C)CC5)CC4)c3[nH]2)c(C)c1 (stereo not shown) [I_CC-35, 4-Methoxy-N,2,6-trimethyl-N-[1-[7-[9-[(5-methyl-3H-imidazol-4-yl)-methyl]-3,9-diazaspiro[5.5]undecane-3-carbonyl]-1H-benzoimidazol-2-yl]-ethyl]-benzenesulfonic acid amide] |
| 101 | 84 | COc1cc(C)c(S(=O)(=O)N(C)C(C)c2nc3cccc(C(=O)N4CCC5(CCN(Cc6cccc(C#N)c6)CC5)CC4)c3[nH]2)c(C)c1 (stereo not shown) [I_CC-44, N-[1-[7-[9-[(3-Cyano-phenyl)-methyl]-3,9-diazaspiro[5.5]undecane-3-carbonyl]-1H-benzoimidazol-2-yl]-ethyl]-4-methoxy-N,2,6-trimethyl-benzenesulfonic acid amide] |
| 100 | 82 | COc1cc(C)c(S(=O)(=O)N(C)C(C)c2nc3cccc(C(=O)N4CCC5(CCN(Cc6cncn6C)CC5)CC4)c3[nH]2)c(C)c1 (stereo not shown) [I_CC-36, 4-Methoxy-N,2,6-trimethyl-N-[1-[7-[9-[(3-methyl-3H-imidazol-4-yl)-methyl]-3,9-diazaspiro[5.5]undecane-3-carbonyl]-1H-benzoimidazol-2-yl]-ethyl]-benzenesulfonic acid amide] |
| 89 | 80 | COc1cc(C)c(S(=O)(=O)N(C)C(C)c2nc3cccc(C(=O)N4CCC5(CCN(Cc6ccc(OC)c(F)c6)CC5)CC4)c3[nH]2)c(C)c1 (stereo not shown) [I_CC-33, N-[1-[7-[9-[(3-Fluoro-4-methoxy-phenyl)-methyl]-3,9-diazaspiro[5.5]undecane-3-carbonyl]-1H-benzoimidazol-2-yl]-ethyl]-4-methoxy-N,2,6-trimethyl-benzenesulfonic acid amide] |
| 88 | 85 | COc1cc(C)c(S(=O)(=O)N(C)C(C)c2nc3cccc(C(=O)N4CCC5(CCN(C(=O)c6ccc(F)cc6F)CC5)CC4)c3[nH]2)c(C)c1 (stereo not shown) [I_CC-53, N-[1-[7-[9-(2,4-Difluoro-benzoyl)-3,9-diazaspiro[5.5]undecane-3-carbonyl]-1H-benzoimidazol-2-yl]-ethyl]-4-methoxy-N,2,6-trimethyl-benzenesulfonic acid amide] |
| 89 | 71 | COc1cc(C)c(S(=O)(=O)N(C)C(C)c2nc3cccc(C(=O)N4CCC5(CC4)CCN(C(=O)c4cc(C)nn4C(C)(C)C)CC5)c3[nH]2)c(C)c1 (stereo not shown) [I_CC-55, N-[1-[7-[9-(2-tert-Butyl-5-methyl-2H-pyrazole-3-carbonyl)-3,9-diazaspiro[5.5]undecane-3-carbonyl]-1H-benzoimidazol-2-yl]-ethyl]-4-methoxy-N,2,6-trimethyl-benzenesulfonic acid amide] |
| 88 | 78 | COc1cc(C)c(S(=O)(=O)N(C)C(C)c2nc3cccc(C(=O)N4CCC5(CCN(C(=O)CC(C)(C)C)CC5)CC4)c3[nH]2)c(C)c1 (stereo not shown) [I_CC-51, N-[1-[7-[9-(3,3-Dimethyl-butanoyl)-3,9-diazaspiro[5.5]undecane-3-carbonyl]-1H-benzoimidazol-2-yl]-ethyl]-4-methoxy-N,2,6-trimethyl-benzenesulfonic acid amide] |
| 94 | 84 | COc1cc(C)c(S(=O)(=O)N(C)C(C)c2nc3cccc(C(=O)N4CCC5(CCN(Cc6c(F)cccc6F)CC5)CC4)c3[nH]2)c(C)c1 (stereo not shown) [I_CC-29, N-[1-[7-[9-[(2,6-Difluoro-phenyl)-methyl]-3,9-diazaspiro[5.5]undecane-3-carbonyl]-1H-benzoimidazol-2-yl]-ethyl]-4-methoxy-N,2,6-trimethyl-benzenesulfonic acid amide] |
| 76 | 100 | COc1cc(C)c(S(=O)(=O)N2CCCC2c2nc3cccc(C(=O)N4CCC5(CC4)CCN(c4ccncc4)CC5)c3[nH]2)c(C)c1 (stereo not shown) [I_19, [2-[1-[(4-methoxy-2,6-dimethyl-phenyl)sulfonyl]-pyrrolidin-2-yl]-3H-benzoimidazol-4-yl]-(9-pyridin-4-yl-3,9-diazaspiro[5.5]undecan-3-yl)-methanone] |
| 101 | 18 | COc1cc(C)c(S(=O)(=O)N(C)C(C)c2nc3cccc(C(=O)N4CCC5(CC4)CCN(S(=O)(=O)c4ccc(F)c(C#N)c4)CC5)c3[nH]2)c(C)c1 (stereo not shown) [I_CC-58, N-[1-[7-[9-[(3-Cyano-4-fluoro-phenyl)sulfonyl]-3,9-diazaspiro[5.5]undecane-3-carbonyl]-1H-benzoimidazol-2-yl]-ethyl]-4-methoxy-N,2,6-trimethyl-benzenesulfonic acid amide] |
